# Experimental data published in PMC12670426 (Journal of Medicinal Chemistry, 2025).
# Key:
# [1] = Plasma stability assay, rat plasma; format: in vitro ADME; conditions: 37 °C
# Protocol: (§1) Test compounds (10 μM) were incubated with mouse, rat, or human pooled plasma from 50 donors (Biowest) at 37 °C for 20, 60, and 120 min. Reactions were terminated by adding four volumes of ice-cold methanol, followed by vigorous mixing. Samples were kept at −20 °C for 30 min and then stored at 4 °C overnight. The next day, samples were centrifuged, and supernatants were diluted with four volumes of 30% methanol in water. Zero time points were prepared by adding ice-cold methanol to the compound prior to the addition of plasma. Samples were then analyzed on an Echo MS system (SCIEX) using multiple reaction monitoring (MRM). The only exception was compound 3af, which was analyzed by LC–MS/MS (SCIEX 6500 triple quadrupole) due to its weak ionization in Echo-MS.
# [2] = Cytotoxicity assay, Jurkat E6.1; format: cell-based; conditions: human, Jurkat E6.1 cells, viability dye, flow cytometry
# Protocol: (§2) To evaluate in vitro cytotoxicity and support its potential application in inflammatory and fibrotic disease models, the following panel of cell lines, representing the relevant biological systems, was used: HEK293, HepG2, THP1, Jurkat E6.1, and LX2. HEK293, HepG2, and Jurkat E6.1 cells were seeded at 400,000 cells/mL, THP1 cells at 500,000 cells/mL, and LX2 cells at 200,000 cells/mL in 96-well plates (cell culture-treated, VWR) in 100 μL/well. Cells were treated with the tested compounds in a serial dilution (300, 100, 33.3, 11.1, and 3.7 μM) for 24 h. Untreated cells served as negative controls to establish the baseline viability threshold. Cell viability was assessed using a viability dye (Zombie Violet Fixable Viability Kit, BioLegend) following the manufacturer’s instructions and analyzed by flow cytometry (see below).
# (§3) Cells or beads from screening assays prepared for flow cytometry were analyzed by the CytoFlex S instrument (Beckman Coulter). Data acquisition was performed using CytExpert software (v2.5, Beckman Coulter). Debris was excluded by forward and side scatter gating, followed by doublet exclusion. Data were analyzed using FlowJo software (v10, BD Biosciences).
# [3] = Cytotoxicity assay, HEK293; format: cell-based; conditions: human, HEK293 cells, viability dye, flow cytometry
# Protocol: as §2, §3
# [4] = Cytotoxicity assay, THP1; format: cell-based; conditions: human, THP1 cells, viability dye, flow cytometry
# Protocol: as §2, §3
# [5] = Cytotoxicity assay, panel of five human cell lines; format: cell-based; conditions: HEK293, HepG2, THP-1, Jurkat E6.1 and LX2 cells; summary in text across panel of five human cell lines
# Protocol: as §2, §3
# [6] = biological target: T1, intracellular Gal-3 in THP1 cells (Homo sapiens, UniProt P17931); experiment: Intracellular Gal-3 target engagement in THP1 cells (flow cytometry, MFI); format: cell-based; conditions: 2 h
# T1 construct: Untreated cells served as negative and baseline controls representing maximum intracellular Gal-3 levels; endogenous in cells; host or cells: THP1 (monocyte-like or PMA-differentiated macrophage-like)
# Protocol: THP1 cells were used to assess the binding of the tested compounds to Gal-3. Cells were either maintained in suspension as undifferentiated monocyte-like cells or differentiated into macrophage-like cells by overnight treatment with phorbol 12-myristate 13-acetate (PMA, Sigma-Aldrich) at a final concentration of 10 ng/mL. […] Untreated cells served as negative and baseline controls representing maximum intracellular Gal-3 levels. Cells were then harvested and intracellularly stained either with galectin-3 monoclonal antibody eF660 (Invitrogen, Thermo Fisher Scientific) or a relevant isotype antibody (Invitrogen, Thermo Fisher Scientific) for flow cytometric analyses (see below). A dose-dependent decrease in Gal-3 signal upon compound treatment was used to assess intracellular target engagement expressed as median fluorescent intensity (MFI).
# as §3
# [7] = Microsomal stability assay, human liver microsomes; format: in vitro ADME; conditions: pooled liver microsomes, pH 7.4, human liver microsomes 0.5 mg/mL, NADPH
# Protocol: (§4) Microsomal stability was determined using 0.5 mg/mL of pooled human, mouse, or rat liver microsomes (Thermo Fisher Scientific) in 90 mM TRIS-Cl buffer (pH 7.4) containing 2 mM NADPH and 2 mM MgCl2. Test compounds (10 μM) were added, and the resulting mixture was incubated at 37 °C for 10, 60, 120, and 180 min. The reactions were terminated by the addition of four volumes of ice-cold methanol, followed by vigorous mixing. The samples were left at −20 °C for 30 min and then stored at 4 °C overnight. The next day, samples were centrifuged, and supernatants were diluted with four volumes of 30% methanol in water. Zero time points were prepared by adding ice-cold methanol to the mixture of compounds and cofactors prior to the addition of microsomes. The samples were then analyzed using the Echo-MS system (SCIEX) with MRM transition monitoring, except for compound 3af, which was analyzed by LC–MS/MS as described in the plasma stability assay.
# [8] = tested on: LPS-stimulated macrophage-like THP1 cells (TNFα secretion); experiment: Anti-inflammatory potential: TNFα secretion in LPS-stimulated PMA-differentiated THP1 cells; format: cell-based, human; conditions: (+)PMA THP1, 1 μg/mL LPS, 24 h, up to 300 μM
# Protocol: Cells were differentiated overnight into macrophage-like phenotypes by treatment with 10 ng/mL PMA and subsequently stimulated with 1 μg/mL lipopolysaccharide (LPS; Invitrogen, Thermo Fisher Scientific) to induce a proinflammatory response. […] After 24 h of LPS and compound exposure, cell culture supernatants were collected and analyzed for TNFα levels using a bead-based multiplex immunoassay (ProcartaPlex Human Basic Kit and TNFα Human ProcartaPlex Simplex Kit, both Invitrogen, Thermo Fisher Scientific). Flow cytometry readout was used as previously described. TNFα concentrations were calculated using a standard curve generated in GraphPad Prism 10 (GraphPad Software, San Diego, CA). Cells or beads from screening assays prepared for flow cytometry were analyzed by the CytoFlex S instrument (Beckman Coulter). Data acquisition was performed using CytExpert software (v2.5, Beckman Coulter). Debris was excluded by forward and side scatter gating, followed by doublet exclusion. Data were analyzed using FlowJo software (v10, BD Biosciences).
# [9] = Plasma stability assay, human plasma; format: in vitro ADME; conditions: pooled plasma, 37 °C
# Protocol: as §1
# [10] = Cytotoxicity assay, LX2; format: cell-based; conditions: human, LX2 cells, viability dye, flow cytometry
# Protocol: as §2, §3
# [11] = biological target: Gal-3C; conditions: read-out: Kd (Gal-3C); previously reported inhibitor, Figure 1A; ref Galecto Biotech; cited from earlier work
# [12] = Plasma stability assay, mouse plasma; format: in vitro ADME; conditions: 37 °C
# Protocol: as §1
# [13] = biological target: Gal-1; conditions: previously reported inhibitor, Figure 1A; ref Galecto Biotech; cited from earlier work
# [14] = Microsomal stability assay, mouse liver microsomes; format: in vitro ADME; conditions: pooled liver microsomes, pH 7.4, mouse liver microsomes 0.5 mg/mL, NADPH
# Protocol: as §4
# [15] = Cytotoxicity assay, HepG2; format: cell-based; conditions: human, HepG2 cells, viability dye, flow cytometry
# Protocol: as §2, §3
# [16] = Microsomal stability assay, rat liver microsomes; format: in vitro ADME; conditions: pooled liver microsomes, pH 7.4, rat liver microsomes 0.5 mg/mL, NADPH
# Protocol: as §4
# T1 sequence (P17931 whole entry): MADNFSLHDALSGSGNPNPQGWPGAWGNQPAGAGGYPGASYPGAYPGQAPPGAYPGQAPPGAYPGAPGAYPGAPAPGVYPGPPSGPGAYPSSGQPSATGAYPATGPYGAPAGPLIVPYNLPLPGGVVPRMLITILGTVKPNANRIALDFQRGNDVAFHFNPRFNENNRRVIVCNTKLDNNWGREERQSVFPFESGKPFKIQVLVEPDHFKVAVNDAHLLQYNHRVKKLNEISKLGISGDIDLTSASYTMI
smiles,measurement,setting,value
"OC[C@H]1O[C@@H](S[C@@H]2O[C@H](CO)[C@H](O)[C@H](n3cc(-c4cccc(F)c4)nn3)[C@H]2O)[C@H](O)[C@@H](n2cc(-c3cccc(F)c3)nn2)[C@H]1O [GB0139, reference compound]","remaining at 2 h, 10 μM",[1],78 ± 8%
same,CC50 at 24 h,[2],> 300 µM
same,CC50 at 24 h,[3],> 300 µM
same,CC50 at 24 h,[4],> 300 µM
same,CC50 at 24 h,[5],> 300 µM
same,"intracellular Gal-3 signal (MFI), macrophage-like THP1 cells","[6]; (+)PMA differentiated THP1, 3.7–300 μM",reduced the Gal-3 signal
same,"intracellular Gal-3 signal (MFI), monocyte-like THP1 cells","[6]; (−)PMA undifferentiated THP1, 3.7–300 μM",minimal effect
same,microsomal CLint at 10 μM,[7],12 ± 6 µL/min/mg
same,LPS-induced TNFα secretion,[8],effectively reduced TNFα secretion
same,"remaining at 2 h, 10 μM",[9],110 ± 5%
same,CC50 at 24 h,[10],> 300 µM
same,Kd,[11],0.014 µM
same,"remaining at 2 h, 10 μM",[12],68 ± 3%
same,Kd,[13],0.012 µM
same,microsomal CLint at 10 μM,[14],6 ± 5 µL/min/mg
same,CC50 at 24 h,[15],> 300 µM
same,microsomal CLint at 10 μM,[16],< 2 µL/min/mg
